Reference: patent US9446012B2, “Pharmaceutical compounds” (BIAL-PORTELA & CA, S.A., priority 2006, dated 2016)

Legend:
liver COMT = assay: Liver COMT activity after oral administration (methylation of adrenaline to metanephrine in liver homogenates); format: in vivo, rat; details: FIG. 1; for inhibition of liver COMT / inhibition of liver COMT activity / time to maximal inhibitory effect on liver COMT: 3 mg/kg; for inhibition of liver COMT: 24 hours after administration; for inhibition of liver COMT activity: nine hours after administration
[1] = Plasma levels of L-DOPA and 3-O-methyl-L-DOPA in rats treated with L-DOPA plus benserazide; format: in vivo, rat; details: 3 mg/kg
[2] = Brain levels of L-DOPA, 3-O-methyl-L-DOPA, dopamine, DOPAC and HVA in rats treated with L-DOPA plus benserazide; format: in vivo, rat
[3] = Treatment of Parkinson's disease patients on L-DOPA therapy; format: in vivo, human; details: tablets containing 50 mg
[4] = L-DOPA 12 mg/kg plus benserazide 3 mg/kg, all pre-treatment times (1, 7 and 24 h)
[5] = 3 mg/kg, L-DOPA plus benserazide, all pre-treatment times (1, 7 and 24 h)
[6] = 3 mg/kg, administered 24 h in advance

Structure (SMILES): Cc1nc(Cl)c(-c2noc(-c3cc(O)c(O)c([N+](=O)[O-])c3)n2)c(C)c1Cl [compound A, 5-[3-(2,5-dichloro-4,6-dimethylpyridin-3-yl)-[1,2,4]oxadiazol-5-yl]-3-nitrobenzene-1,2-diol]
- inhibition of liver COMT (liver COMT): 60 % of control levels
- inhibition of liver COMT activity (liver COMT): 90 % of control levels
- time to maximal inhibitory effect on liver COMT (liver COMT; oral administration): ≤ 6 h
- inhibitor of liver COMT (in words) (liver COMT; oral administration): potent inhibitor
- circulating 3-O-methyl-L-DOPA [1, 4]: marked decrease
- plasma L-DOPA [1, 4]: significant increases
- brain 3-O-methyl-L-DOPA [2, 5]: marked decrease
- brain DOPAC [2, 5]: significant increases
- brain L-DOPA [2, 5]: significant increases
- brain dopamine [2, 5]: significant increases
- clinical picture [3]: significant improvement

Structure (SMILES): Cc1ccc(C(=O)c2cc(O)c(O)c([N+](=O)[O-])c2)cc1 [tolcapone, 3,4-dihydroxy-4′-methyl-5-nitrobenzophenone]
- inhibition of liver COMT (liver COMT): almost devoid of COMT inhibitory properties
- time to maximal inhibitory effect on liver COMT (liver COMT; after administration): ≤ 0.5 h
- inhibition of liver COMT activity (liver COMT): minimal inhibitory effects
- 3-O-methyl-L-DOPA plasma levels ([1]; 2 and 7 h after administration): Significant changes
- L-DOPA plasma levels ([1]; 2 and 7 h after administration): Significant changes
- plasma levels of 3-O-methyl-L-DOPA ([1]; administered 24 h in advance): not affected
- plasma levels of L-DOPA ([1]; administered 24 h in advance): not affected
- brain levels of 3-O-methyl-L-DOPA [2, 6]: not affected
- brain levels of DOPAC [2, 6]: not affected
- brain levels of L-DOPA [2, 6]: not affected
- brain levels of dopamine [2, 6]: not affected
- steadiness of brain delivery of L-DOPA ([2]; rat, in vivo): marked oscillations
